One assay has as its target E. coli PBP3 (Escherichia coli (strain K12), UniProt P0AD68). Nature of the assay: E. coli PBP3 Bocillin-FL fluorescence polarization competition binding assay. The method in brief:
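Polarization at 490/520 nm was monitored for 60 minutes in pH 8.0 Hepes buffer containing 300 mM NaCl and 5% glycerol, with compound spanning 0–1000 μM.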
(In general: In fluorescence polarisation assays a small probe gives low polarisation when free and higher when bound to something large.)

Assay [1] has as its system P. aeruginosa (ΔmexAB-oprM). Kind of assay: microbe, parasite or virus in culture. The note with it: Pseudomonas aeruginosa, read-out: MIC P. aeruginosa ΔmexAB-OprM. Type of assay: cell-based. The method in brief:
(§1)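 Following CLSI guidance, growth inhibition is measured in Mueller-Hinton broth with divalent cations. Inoculum 5×10^5 CFU/mL; incubation 16-20 hours, 37° C; endpoint is visual absence of growth.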

For a further assay, the system named is P. aeruginosa ATCC 35151. Nature of the assay: microbe, parasite or virus in culture. In kind it is cell-based. The note with it: Pseudomonas aeruginosa, ATCC35151; hyper-permeable P. aeruginosa ATCC 35151; read-out: MIC P. aeruginosa ATCC 35151. The method in brief: as §1
For a further assay, the system named is P. aeruginosa PAO1. Kind of assay: Broth microdilution MIC, P. aeruginosa PAO1. Type of assay: cell-based. The note with it: Pseudomonas aeruginosa; P. aeruginosa PAO1, broth microdilution; read-out: MIC P. aeruginosa PAO1. The method in brief:
as §1

For another assay, the system named is A. baumannii ATCC 19606. Nature of the assay: Broth microdilution MIC, A. baumannii ATCC 19606. Type of assay: cell-based. As to conditions: Acinetobacter baumannii, ATCC19606; A. baumannii ATCC 19606, broth microdilution; read-out: MIC A. baumannii ATCC 19606. The method in brief:
as §1
On the technique in general: In broth dilution the organism is exposed to a series of concentrations in liquid medium.

A further assay deals with N. gonorrhoeae FA1090. Kind of assay: Liquid broth MIC, N. gonorrhoeae FA1090. Type of assay: cell-based. The note with it: Neisseria gonorrhoeae; N. gonorrhoeae FA1090, liquid broth; read-out: Minimum Inhibitory Concentration, N. gonorrhoeae FA1090. The method in brief:
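Colonies sub-cultured 24 h earlier on supplemented GC agar are suspended in broth, adjusted by optical density at 600 nm and added to 2-fold serial compound dilutions at 5×10^5 CFU/mL. Plates incubate 40-42 hours at 36° C with 5% CO2 before visual MIC reading.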

The mark [2] stands for this setting: fluorescence polarization competition binding with Bocillin-FL, read-out: E. coli K12 PBP3 Potency.

Values after ≈ are worked out from the molar mass of the structure shown. Where two headings read alike, the source gives them in different places. Where only a bound is given, the exact number is not on record here.

This passage reports EC50 and MIC results from US12173018B2, “Penicillin-binding protein inhibitors” (priority 2018, dated 2024).

E. coli PBP3, sequence (P0AD68 whole entry): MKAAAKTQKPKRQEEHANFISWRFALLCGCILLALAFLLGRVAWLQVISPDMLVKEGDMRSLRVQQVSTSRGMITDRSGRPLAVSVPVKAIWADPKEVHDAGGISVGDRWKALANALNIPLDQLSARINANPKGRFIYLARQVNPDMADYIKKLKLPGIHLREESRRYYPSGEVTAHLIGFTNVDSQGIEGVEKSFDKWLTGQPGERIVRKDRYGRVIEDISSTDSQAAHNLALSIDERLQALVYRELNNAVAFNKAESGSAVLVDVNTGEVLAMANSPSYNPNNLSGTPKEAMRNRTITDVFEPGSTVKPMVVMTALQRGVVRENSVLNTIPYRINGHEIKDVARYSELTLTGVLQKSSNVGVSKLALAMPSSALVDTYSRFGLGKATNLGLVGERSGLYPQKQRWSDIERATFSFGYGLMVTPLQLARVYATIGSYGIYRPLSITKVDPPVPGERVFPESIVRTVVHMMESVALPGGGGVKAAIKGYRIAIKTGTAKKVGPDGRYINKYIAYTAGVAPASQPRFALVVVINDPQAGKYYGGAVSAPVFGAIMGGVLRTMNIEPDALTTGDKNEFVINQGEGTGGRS

On E. coli PBP3, `CCN1CCN(C(=O)NC(C(=O)N[C@H]2Cc3ccc(Cl)c(C(=O)O)c3OB2O)c2ccc(O)c(O)c2Cl)C(=O)C1=O` (stereo partly drawn) [Example 217, (3R)-7-chloro-3-(2-(2-chloro-3,4-dihydroxyphenyl)-2-(4-ethyl-2,3-dioxopiperazine-1-carboxamido)acetamido)-2-hydroxy-3,4-dihydro-2H-benzo[e][1,2]oxaborinine-8-carboxylic acid] yielded an EC50 of 30 to 500 µM. Further, the MIC is < 0.25 µg/mL in assay [1]; < 0.25 µg/mL in the assay with P. aeruginosa ATCC 35151; 2 to 4 µg/mL with P. aeruginosa PAO1; 0.5 to 1 µg/mL in the assay on A. baumannii ATCC 19606; 1 to 2 µg/mL (≈ 1.64 to 3.28 µM) in the assay with N. gonorrhoeae FA1090.

For `CC[C@H]1CN(CC)C(=O)C(=O)N1C(=O)NC(C(=O)N[C@H]1Cc2cccc(C(=O)O)c2OB1O)c1ncc(O)cc1F` (stereo partly drawn) [Example 218, (3R)-3-(2-((S)-4,6-diethyl-2,3-dioxopiperazine-1-carboxamido)-2-(3-fluoro-5-hydroxypyridin-2-yl)acetamido)-2-hydroxy-3,4-dihydro-2H-benzo[e][1,2]oxaborinine-8-carboxylic acid], the EC50 at E. coli PBP3 (setting [2]) was < 30 µM. In addition, the MIC was 32 to 64 µg/mL in assay [1]; 2 to 4 µg/mL with P. aeruginosa ATCC 35151; > 128 µg/mL in the assay with P. aeruginosa PAO1; > 128 µg/mL in the assay with A. baumannii ATCC 19606; 0.25 to 0.5 µg/mL (≈ 0.438 to 0.875 µM) in the assay on N. gonorrhoeae FA1090.

With `C[C@H]1CN(CCO)C(=O)C(=O)N1C(=O)NC(C(=O)N[C@H]1Cc2cccc(C(=O)O)c2OB1O)c1ccc(O)c(O)c1Cl` (stereo partly drawn) [Example 224, (3R)-3-(2-(2-chloro-3,4-dihydroxyphenyl)-2-((S)-4-(2-hydroxyethyl)-6-methyl-2,3-dioxopiperazine-1-carboxamido)acetamido)-2-hydroxy-3,4-dihydro-2H-benzo[e][1,2]oxaborinine-8-carboxylic acid], the EC50 on E. coli PBP3 fell in the range of 30 to 500 µM. Besides, the MIC in assay [1] is 0.5 to 1 µg/mL; with P. aeruginosa ATCC 35151, < 0.25 µg/mL; in the assay with P. aeruginosa PAO1, 8 to 16 µg/mL; with A. baumannii ATCC 19606, < 0.25 µg/mL; with N. gonorrhoeae FA1090, 1 to 2 µg/mL (≈ 1.65 to 3.31 µM).

In the case of `NCCN1CCN(C(=O)N[C@@H](C(=O)N[C@H]2Cc3cccc(C(=O)O)c3OB2O)c2ncc(O)cc2F)C(=O)C1=O` [Example 225, (R)-3-((R)-2-(4-(2-aminoethyl)-2,3-dioxopiperazine-1-carboxamido)-2-(3-fluoro-5-hydroxypyridin-2-yl)acetamido)-2-hydroxy-3,4-dihydro-2H-benzo[e][1,2]oxaborinine-8-carboxylic acid], the EC50 at E. coli PBP3 (setting [2]) was < 30 µM. The MIC in assay [1] was 2 to 4 µg/mL; with P. aeruginosa ATCC 35151, 0.5 to 1 µg/mL; in the assay on P. aeruginosa PAO1, > 128 µg/mL; in the assay with A. baumannii ATCC 19606, > 128 µg/mL; in the assay with N. gonorrhoeae FA1090, 0.25 to 0.5 µg/mL (≈ 0.448 to 0.896 µM).

On to `NCCN1CCN(C(=O)N[C@@H](C(=O)N[C@H]2Cc3ccc(F)c(C(=O)O)c3OB2O)c2ccc(O)c(O)c2Cl)C(=O)C1=O` [Example 227, (R)-3-((R)-2-(4-(2-aminoethyl)-2,3-dioxopiperazine-1-carboxamido)-2-(2-chloro-3,4-dihydroxyphenyl)acetamido)-7-fluoro-2-hydroxy-3,4-dihydro-2H-benzo[e][1,2]oxaborinine-8-carboxylic acid], for which the EC50 at E. coli PBP3 lay within 30 to 500 µM. Further, the MIC in assay [1] was < 0.25 µg/mL; in the assay with P. aeruginosa ATCC 35151, < 0.25 µg/mL; in the assay with P. aeruginosa PAO1 it was < 0.25 µg/mL; in the assay with A. baumannii ATCC 19606 it was < 0.25 µg/mL; in the assay with N. gonorrhoeae FA1090, 1 to 2 µg/mL (≈ 1.65 to 3.29 µM).

Regarding `CC(=O)NCCN1CCN(C(=O)NC(C(=O)N[C@H]2Cc3cccc(C(=O)O)c3OB2O)c2ccc(O)c(O)c2Cl)C(=O)C1=O` (stereo partly drawn) [Example 228, (3R)-3-(2-(4-(2-acetamidoethyl)-2,3-dioxopiperazine-1-carboxamido)-2-(2-chloro-3,4-dihydroxyphenyl)acetamido)-2-hydroxy-3,4-dihydro-2H-benzo[e][1,2]oxaborinine-8-carboxylic acid], the EC50 at E. coli PBP3 lay in the range of 30 to 500 µM. In addition, the MIC in assay [1] is < 0.25 µg/mL; in the assay on P. aeruginosa ATCC 35151, < 0.25 µg/mL; with P. aeruginosa PAO1 it was 0.5 to 1 µg/mL; in the assay with A. baumannii ATCC 19606, 0.5 to 1 µg/mL; with N. gonorrhoeae FA1090 it was 1 to 2 µg/mL (≈ 1.58 to 3.17 µM).
